Source: the NIST ThermoML archive (doi:10.1021/je049662k)

Conditions: Liquid; for mass density: isochoric method; for viscosity: Falling or rolling sphere viscometry

CCC(C)C(C)C (stereo not drawn) [2,3-dimethylpentane]
Conditions	mass density [kg/m3]	viscosity [mPa·s]
278.15 K, 100 kPa	707.6	–
278.15 K, 1000 kPa	708.3	–
278.15 K, 5000 kPa	711.6	–
278.15 K, 10000 kPa	715.5	–
278.15 K, 15000 kPa	719.1	–
278.15 K, 20000 kPa	722.7	–
278.15 K, 25000 kPa	726	–
278.15 K, 30000 kPa	729.2	–
278.15 K, 35000 kPa	732.2	–
278.15 K, 40000 kPa	735.2	–
278.15 K, 45000 kPa	738	–
283.15 K, 100 kPa	703.2	–
283.15 K, 1000 kPa	704	–
283.15 K, 5000 kPa	707.4	–
283.15 K, 10000 kPa	711.5	–
283.15 K, 15000 kPa	715.3	–
283.15 K, 20000 kPa	718.9	–
283.15 K, 25000 kPa	722.3	–
283.15 K, 30000 kPa	725.6	–
283.15 K, 35000 kPa	728.7	–
283.15 K, 40000 kPa	731.7	–
283.15 K, 45000 kPa	734.6	–
293.15 K, 100 kPa	694.9	–
293.15 K, 1000 kPa	695.7	–
293.15 K, 5000 kPa	699.3	–
293.15 K, 10000 kPa	703.6	–
293.15 K, 15000 kPa	707.7	–
293.15 K, 20000 kPa	711.5	–
293.15 K, 25000 kPa	715.1	–
293.15 K, 30000 kPa	718.6	–
293.15 K, 35000 kPa	721.9	–
293.15 K, 40000 kPa	725	–
293.15 K, 45000 kPa	728	–
303.15 K, 100 kPa	686.3	0.356
303.15 K, 1000 kPa	687.2	0.36
303.15 K, 5000 kPa	691.1	0.377
303.15 K, 10000 kPa	695.7	0.398
303.15 K, 15000 kPa	700	0.419
303.15 K, 20000 kPa	704.1	0.441
303.15 K, 25000 kPa	707.9	0.462
303.15 K, 30000 kPa	711.6	0.485
303.15 K, 35000 kPa	715	0.507
303.15 K, 40000 kPa	718.3	0.53
303.15 K, 45000 kPa	721.5	0.553
303.15 K, 50000 kPa	–	0.576
303.15 K, 55000 kPa	–	0.6
303.15 K, 60000 kPa	–	0.624
313.15 K, 100 kPa	677.6	0.324
313.15 K, 1000 kPa	678.6	0.328
313.15 K, 5000 kPa	682.8	0.343
313.15 K, 10000 kPa	687.7	0.361
313.15 K, 15000 kPa	692.3	0.38
313.15 K, 20000 kPa	696.6	0.399
313.15 K, 25000 kPa	700.7	0.418
313.15 K, 30000 kPa	704.5	0.438
313.15 K, 35000 kPa	708.2	0.458
313.15 K, 40000 kPa	711.6	0.479
313.15 K, 45000 kPa	715	0.5
313.15 K, 50000 kPa	–	0.522
313.15 K, 55000 kPa	–	0.544
313.15 K, 60000 kPa	–	0.566
323.15 K, 100 kPa	668.7	0.29
323.15 K, 1000 kPa	669.8	0.294
323.15 K, 5000 kPa	674.3	0.308
323.15 K, 10000 kPa	679.6	0.326
323.15 K, 15000 kPa	684.5	0.344
323.15 K, 20000 kPa	689.1	0.362
323.15 K, 25000 kPa	693.4	0.381
323.15 K, 30000 kPa	697.5	0.399
323.15 K, 35000 kPa	701.3	0.418
323.15 K, 40000 kPa	705	0.437
323.15 K, 45000 kPa	708.4	0.457
323.15 K, 50000 kPa	–	0.476
323.15 K, 55000 kPa	–	0.496
323.15 K, 60000 kPa	–	0.517
333.15 K, 100 kPa	659.7	0.262
333.15 K, 1000 kPa	660.9	0.266
333.15 K, 5000 kPa	665.8	0.28
333.15 K, 10000 kPa	671.5	0.298
333.15 K, 15000 kPa	676.7	0.316
333.15 K, 20000 kPa	681.6	0.334
333.15 K, 25000 kPa	686.2	0.352
333.15 K, 30000 kPa	690.5	0.369
333.15 K, 35000 kPa	694.5	0.387
333.15 K, 40000 kPa	698.3	0.404
333.15 K, 45000 kPa	702	0.422
333.15 K, 50000 kPa	–	0.439
333.15 K, 55000 kPa	–	0.457
333.15 K, 60000 kPa	–	0.474
343.15 K, 100 kPa	650.6	0.244
343.15 K, 1000 kPa	651.9	0.247
343.15 K, 5000 kPa	657.2	0.26
343.15 K, 10000 kPa	663.3	0.276
343.15 K, 15000 kPa	668.9	0.292
343.15 K, 20000 kPa	674.1	0.309
343.15 K, 25000 kPa	678.9	0.325
343.15 K, 30000 kPa	683.5	0.342
343.15 K, 35000 kPa	687.7	0.359
343.15 K, 40000 kPa	691.7	0.376
343.15 K, 45000 kPa	695.5	0.393
343.15 K, 50000 kPa	–	0.41
343.15 K, 55000 kPa	–	0.428
343.15 K, 60000 kPa	–	0.445
353.15 K, 100 kPa	641.3	0.232
353.15 K, 1000 kPa	642.7	0.234
353.15 K, 5000 kPa	648.5	0.246
353.15 K, 10000 kPa	655.1	0.261
353.15 K, 15000 kPa	661.1	0.276
353.15 K, 20000 kPa	666.6	0.291
353.15 K, 25000 kPa	671.7	0.306
353.15 K, 30000 kPa	676.5	0.321
353.15 K, 35000 kPa	680.9	0.336
353.15 K, 40000 kPa	685.1	0.35
353.15 K, 45000 kPa	689.1	0.365
353.15 K, 50000 kPa	–	0.381
353.15 K, 55000 kPa	–	0.395
353.15 K, 60000 kPa	–	0.411
